The text below walks through data of ChEMBL document CHEMBL1201862, “PubChem BioAssay data set” (2004).

Assay [1] can be described thus: cytotoxicity toward NIH3T3 fibroblasts, dose response, counter-screen, cell-based, ATP luminescence, mouse fibroblasts (AID 2010).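 Further: cells exposed to compound for about 90 hours before reading.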 It counts as functional. (A counterscreen serves to expose hits that act by an unwanted route or on another target.)
Assay [2] in a line: inhibitors of intracellular T. cruzi replication, confirmation, NIH3T3 host cells, beta-gal luminescence (AID 2044).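 Further: intracellular parasites grown in NIH/3T3 mouse fibroblasts as host cells; luminescent beta-galactosidase reporter signal from transgenic T. cruzi replicating inside host cells; inhibitors lower the luminescence signal.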 Format: functional, cell-based.
For another assay, the system named is Streptococcus. The assay is described as follows: Group A Streptococcus viability loss, dose response, counter-screen for streptokinase expression inhibitor project, luminescence, BacTiterGlo (AID 1915).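 Further: potency for reduction of bacterial viability or growth.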 Format: functional, organism-based.
The target of the next assay is T1, Streptokinase A (Streptococcus pyogenes serotype M1, UniProt P10520).
T1 sequence (P10520 whole entry): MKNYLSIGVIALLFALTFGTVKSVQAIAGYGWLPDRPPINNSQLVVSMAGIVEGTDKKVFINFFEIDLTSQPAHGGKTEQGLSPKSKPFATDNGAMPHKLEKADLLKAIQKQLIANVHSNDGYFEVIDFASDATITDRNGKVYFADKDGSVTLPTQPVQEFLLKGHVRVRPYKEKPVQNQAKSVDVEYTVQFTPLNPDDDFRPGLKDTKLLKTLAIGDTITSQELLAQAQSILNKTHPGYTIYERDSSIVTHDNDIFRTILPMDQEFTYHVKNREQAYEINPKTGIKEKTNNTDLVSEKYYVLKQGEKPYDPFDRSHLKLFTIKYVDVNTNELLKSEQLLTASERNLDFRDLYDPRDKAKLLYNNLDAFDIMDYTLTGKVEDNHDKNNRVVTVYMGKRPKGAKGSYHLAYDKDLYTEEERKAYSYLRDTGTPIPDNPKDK
The assay is described as follows: S. pyogenes streptokinase expression inhibitors, potency, dose response, plasminogen activation absorbance, OD405 (AID 1914).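 Further: secreted streptokinase activity via plasminogen activation per viability signal from cell pellet.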 It counts as functional, Streptococcus pyogenes M1 GAS.

Assay [3] concerns Streptococcus sp. 'group A'. The assay is described as follows: growth inhibition of control SK(-) GAS strain, dose response, counter-screen for streptokinase expression inhibitor project, luminescence, kanamycin, BacTiterGlo, confirmation (AID 1900). It counts as functional, organism-based.
In assay [4] the target is T2, Tyrosine-protein phosphatase non-receptor type 22 (Homo sapiens, UniProt Q9Y2R2).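 Further: confirmatory dose-response retesting of primary uHTS hits against LYP; potency is for inhibition of phosphatase activity.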
T2 sequence (Q9Y2R2 whole entry): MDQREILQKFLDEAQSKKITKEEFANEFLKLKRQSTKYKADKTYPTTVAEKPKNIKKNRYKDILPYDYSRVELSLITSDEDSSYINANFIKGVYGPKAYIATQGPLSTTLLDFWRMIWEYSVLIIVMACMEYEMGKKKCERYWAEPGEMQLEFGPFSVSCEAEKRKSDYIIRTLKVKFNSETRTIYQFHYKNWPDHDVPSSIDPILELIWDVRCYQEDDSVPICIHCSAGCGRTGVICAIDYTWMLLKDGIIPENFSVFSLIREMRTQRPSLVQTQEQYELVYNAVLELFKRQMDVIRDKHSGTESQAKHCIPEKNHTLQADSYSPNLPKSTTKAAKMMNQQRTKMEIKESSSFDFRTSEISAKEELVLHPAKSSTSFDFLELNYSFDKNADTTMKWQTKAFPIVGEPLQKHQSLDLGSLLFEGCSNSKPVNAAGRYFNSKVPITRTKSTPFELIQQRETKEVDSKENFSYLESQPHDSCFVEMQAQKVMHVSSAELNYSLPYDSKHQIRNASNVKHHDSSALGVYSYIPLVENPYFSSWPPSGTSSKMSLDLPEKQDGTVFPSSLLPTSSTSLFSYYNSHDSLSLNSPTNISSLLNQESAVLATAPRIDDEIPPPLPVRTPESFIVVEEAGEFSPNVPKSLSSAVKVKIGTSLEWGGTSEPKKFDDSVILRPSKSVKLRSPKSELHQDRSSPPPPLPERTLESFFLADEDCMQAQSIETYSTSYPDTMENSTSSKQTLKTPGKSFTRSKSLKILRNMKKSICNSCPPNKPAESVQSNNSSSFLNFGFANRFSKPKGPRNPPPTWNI
It counts as functional.

In assay [5] the target is Small ubiquitin-related modifier 2 (Homo sapiens, UniProt P61956). The assay is described as follows: inhibitors of SUMO2 protein-protein interaction, dose response, selectivity assay for SUMO1 interaction inhibitor project, biochemical, FRET, human SUMO2, uHTS hits (AID 624384). Format: functional. The conditions noted are these: read-out: IC50_Mean.
Small ubiquitin-related modifier 2, sequence (P61956 whole entry): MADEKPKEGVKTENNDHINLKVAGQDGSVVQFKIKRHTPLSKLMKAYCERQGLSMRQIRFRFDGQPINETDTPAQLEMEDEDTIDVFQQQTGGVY
A further assay relates to INS1. The assay is described as follows: beta cell apoptosis inhibitors, cytokine rescue, dose response, luminescence, retest (AID 449756).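 Further: cell death triggered by IL-1 beta plus TNF-alpha plus IFN-gamma mixture; protective hits raise ATP signal compared with cytokine alone wells.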 Format: functional, cell-based. As to conditions: Rattus norvegicus.
For another assay, the target named is T3, Protein RecA (Mycobacterium tuberculosis, UniProt P9WHJ3).
T3 sequence (P9WHJ3 whole entry): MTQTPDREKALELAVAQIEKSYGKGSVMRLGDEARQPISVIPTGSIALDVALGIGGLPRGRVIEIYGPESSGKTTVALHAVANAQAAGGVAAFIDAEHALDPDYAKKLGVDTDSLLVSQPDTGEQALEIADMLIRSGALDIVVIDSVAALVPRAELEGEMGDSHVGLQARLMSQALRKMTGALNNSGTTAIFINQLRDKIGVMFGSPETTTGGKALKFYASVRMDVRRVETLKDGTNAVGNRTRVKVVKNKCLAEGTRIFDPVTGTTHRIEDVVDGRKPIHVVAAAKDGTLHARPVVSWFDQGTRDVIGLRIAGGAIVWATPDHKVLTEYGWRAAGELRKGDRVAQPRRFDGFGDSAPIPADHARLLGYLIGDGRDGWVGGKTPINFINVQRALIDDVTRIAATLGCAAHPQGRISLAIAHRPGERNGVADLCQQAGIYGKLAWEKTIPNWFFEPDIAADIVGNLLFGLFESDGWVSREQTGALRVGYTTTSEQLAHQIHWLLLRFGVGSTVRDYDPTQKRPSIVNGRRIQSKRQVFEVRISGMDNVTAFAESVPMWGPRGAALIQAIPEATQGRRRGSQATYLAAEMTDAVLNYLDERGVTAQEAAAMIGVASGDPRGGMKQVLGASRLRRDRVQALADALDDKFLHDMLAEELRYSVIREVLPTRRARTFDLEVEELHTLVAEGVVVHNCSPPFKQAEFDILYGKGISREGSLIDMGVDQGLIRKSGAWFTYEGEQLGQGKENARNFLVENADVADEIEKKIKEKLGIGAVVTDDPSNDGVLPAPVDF
The assay is described as follows: Fluorescence Cell-Free Homogeneous Dose Retest to Identify Inhibitors of RecA-Intein Splicing Activity. [Related pubchem assays (depositor defined):AID2097, AID2223, AID489010, AID492950]. It counts as functional.

The target of another assay is T4, Caspase-6 (Homo sapiens, UniProt P55212).
T4 sequence (P55212 whole entry): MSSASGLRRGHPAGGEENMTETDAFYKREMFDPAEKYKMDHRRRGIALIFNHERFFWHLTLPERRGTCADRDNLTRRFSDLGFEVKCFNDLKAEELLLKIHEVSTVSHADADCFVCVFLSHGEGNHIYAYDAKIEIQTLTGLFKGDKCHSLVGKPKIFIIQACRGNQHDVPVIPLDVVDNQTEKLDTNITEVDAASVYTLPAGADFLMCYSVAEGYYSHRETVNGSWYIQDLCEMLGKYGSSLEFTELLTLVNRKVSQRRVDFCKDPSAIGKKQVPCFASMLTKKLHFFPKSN
Briefly: human caspase-6 inhibitors, dose response, biochemical, VEID-R110 fluorescence, cherry-pick (AID 720632).

Activity calls are given as the source filed them. For most assays here, no stated cut-off is given here; in the data, actives have a measured EC50 and inactives only a lower limit. Where only a bound is given, the exact number is not on record here.

`CCN1/C(=C/c2ccc3cc(C)ccc3[n+]2CC)Sc2cc(C)c(C)cc21`: the EC50 in [1] was 5.67 µM (active); in assay [2], < 0.1 µM (active); in the assay with Streptococcus it was 8.85 µM (active); at Streptokinase A, > 150 µM (not active); in assay [3], 8.22 µM (active).

Take `Nc1ccc2nc3c(O)nc(S)nc3nc2c1`: the IC50 is 76.3 µM (active) in assay [4] and 0.584 µM (active) in assay [5].

With `Cc1oc2c(c1C(=O)c1ccccc1)C(=O)C(=O)c1ccccc1-2`, in the assay with INS1, the AC50 is 2.71 µM (active).

As to `O=C1CCCC2=C1C1(O)C(=O)c3ccccc3C1(O)O2` (stereo not given), on Protein RecA, the EC50 is 11.5 µM (active).

In the case of `CSc1ccc(C=NNc2ccc(S(=O)(=O)Nc3ccccc3C(=O)O)cc2[N+](=O)[O-])cc1`, the AC50 at Caspase-6 was 6.66 µM (active). Further, the IC50 in assay [5] is 53.1 µM (inactive).

For the compound `O=C1C(Cl)=C(NCCN2CCCCC2)C(=O)c2ccccc21`, the AC50 in the assay with INS1 was 4.41 µM (active). Moreover, the EC50 in [1] was 0.798 µM (active); in assay [2], 0.509 µM (active); at Protein RecA, 7.31 µM (active).

For `O=C(O)COc1ccc(/C=N/NC(=O)c2ccc(-c3csc(Nc4ccc(Cl)cc4)n3)cc2)cc1`, the IC50 in assay [4] was < 1.24 µM (active).

For `COc1cc(NCCCNC(C)C)c2nccc(C)c2c1`, on Caspase-6, the AC50 was 33.5 µM (active).

Turning to `CC(/C=C1\SC(=S)N(NS(=O)(=O)c2ccccc2)C1=O)=C\c1ccccc1`, the EC50 with Streptococcus was > 150 µM (not active); at Streptokinase A it was 21.4 µM (active); in assay [3], 1.94 µM (active).

One may read the EC50 as the midpoint of the concentration-response curve. One may read the AC50 as the midpoint of the concentration-response curve, whichever way the signal moves.
